We go through 14 compounds from patent US12378256B2, “Heterocyclic compound” (Takeda Pharmaceutical Company Limited, priority 2017, dated 2025).

This test addresses T1, human M1 receptor (hCHRM1) (Homo sapiens, UniProt P11229).
T1 construct: expressed in transfected cells; host or cells: CHO-K1
T1 sequence (P11229 1-460): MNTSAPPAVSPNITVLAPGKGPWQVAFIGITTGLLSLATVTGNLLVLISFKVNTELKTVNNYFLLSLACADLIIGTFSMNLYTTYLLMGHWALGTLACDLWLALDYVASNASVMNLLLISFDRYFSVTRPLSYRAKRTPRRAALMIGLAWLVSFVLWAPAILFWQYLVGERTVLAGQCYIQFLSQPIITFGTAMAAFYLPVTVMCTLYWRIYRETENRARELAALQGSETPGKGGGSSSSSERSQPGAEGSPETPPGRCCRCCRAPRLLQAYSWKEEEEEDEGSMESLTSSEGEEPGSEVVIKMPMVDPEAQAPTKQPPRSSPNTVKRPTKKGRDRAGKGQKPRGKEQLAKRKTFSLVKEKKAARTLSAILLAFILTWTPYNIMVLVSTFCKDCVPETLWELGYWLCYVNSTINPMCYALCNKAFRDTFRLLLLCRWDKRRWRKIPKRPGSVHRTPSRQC
The test is described as follows: Measurement of M1 receptor positive allosteric modulator (M1PAM) activity, calcium fluorescence with acetylcholine at EC20. The note with it: for activity (%) at 10 μM: 10 μM test compound, 100% = 1 μM acetylcholine, 0% = DMSO; for pEC50: CHO-K1 cells expressing hCHRM1, acetylcholine at EC20 (final 0.8-1.0 nM), read-out: IP value (inflection point in the concentration-dependent curve). The format is cell-based. Here is the method:
Measurement of M1 Receptor Positive Allosteric Modulator (M1PAM) Activity
The activity of a test compound in the presence of acetylcholine at EC20 concentration (final concentration 0.8-1.0 nM), which affords an action corresponding to about 20% of the maximum activity, was measured as PAM activity. The method is as follows. CHO-K1 cells stably expressing a human M1 receptor (hCHRM1) were plated on a 384-well black clear bottom plate (BD Falcon) at 5,000 cells/well, and cultured in an incubator at 37° C., 5% CO2 for 1 day. The medium in the cell plate was removed, and assay buffer A containing calcium indicator (Recording medium (DOJINDO LABORATORIES), 0.1% BSA (Wako Pure Chemical Industries, Ltd.), 2.5 μg/mL Fluo-4 AM (DOJINDO LABORATORIES), 0.08% Pluronic F127 (DOJINDO LABORATORIES), 1.25 mM probenecid (DOJINDO LABORATORIES)) was added at 30 μL/well. The cells were left standing in the incubator at 37° C., 5% CO2 for 30 min, and further left standing at room temperature for 30 min. A test compound prepared by diluting with assay buffer B (HBSS (Invitrogen), 20 mM HEPES (Invitrogen), 0.1% BSA) containing 3.2-4.0 nM acetylcholine was added at 10 μL/well, and the fluorescence was measured by FDSS/μCELL (Hamamatsu Photonics K.K.) for 1 min every for 1 second. With the definition that the amount of change in the fluorescence on addition of acetylcholine (final concentration 1 μM) is 100% and that on addition of DMSO instead of a test compound is 0%, the activity (%) of the test compound was calculated, and the inflection point in the concentration-dependent curve of the test compound was calculated as IP values.

pEC50: −log10 of the molar value.

In the case of `Cc1cc2nc(C(=O)N[C@H]3CCOC[C@@H]3O)cc(Cc3ccc(-c4cn(C)nn4)cc3)c2o1` [Example 64, 1,5-anhydro-2,3-dideoxy-3-(((2-methyl-7-(4-(1-methyl-1H-1,2,3-triazol-4-yl)benzyl)furo[3,2-b]pyridin-5-yl)carbonyl)amino)-L-threo-pentitol], the “activity (%) at 10 μM” value stood at 109% and the pEC50 is 8.62.

`CNC(=O)c1ccc(Cc2cc(C(=O)N[C@H]3CCOC[C@@H]3O)nc3cc(C)oc23)cc1F` [Example 65, 1,5-anhydro-2,3-dideoxy-3-(((7-(3-fluoro-4-(methylcarbamoyl)benzyl)-2-methylfuro[3,2-b]pyridin-5-yl)carbonyl)amino)-L-threo-pentitol]: the “activity (%) at 10 μM” value was determined as 106% and the pEC50 was 8.07.

As to `Cn1cc(-c2ccc(C(F)c3cc(C(=O)N[C@H]4CCCC[C@@H]4O)nc4ccoc34)cn2)cn1` (stereo partly drawn) [Example 70, 7-(fluoro(6-(1-methyl-1H-pyrazol-4-yl)pyridin-3-yl)methyl)-N-((1S,2S)-2-hydroxycyclohexyl)furo[3,2-b]pyridine-5-carboxamide], the “activity (%) at 10 μM” value turned out to be 99% and the pEC50 was 8.92.

With `CCNC(=O)c1ccc(Cc2cc(C(=O)N[C@H]3CCOC[C@@H]3O)nc3c2OCC3)cc1F` [Example 81, 1,5-anhydro-2,3-dideoxy-3-(((7-(4-(ethylcarbamoyl)-3-fluorobenzyl)-2,3-dihydrofuro[3,2-b]pyridin-5-yl)carbonyl)amino)-L-threo-pentitol], the “activity (%) at 10 μM” value was found to be 108% and the pEC50 is 8.28.

Turning to `O=C(N[C@H]1CCOC[C@@H]1O)c1cc(Cc2ccc(C(=O)NC3CC3)c(F)c2)c2c(n1)CCO2` [Example 82, 1,5-anhydro-3-(((7-(4-(cyclopropylcarbamoyl)-3-fluorobenzyl)-2,3-dihydrofuro[3,2-b]pyridin-5-yl)carbonyl)amino)-2,3-dideoxy-L-threo-pentitol], the “activity (%) at 10 μM” value is recorded as 110% and the pEC50 was 8.19.

As for `O=C(N[C@H]1CCOC[C@@H]1O)c1cc(Cc2ccc(C(=O)NC[C@H]3CCCO3)c(F)c2)c2c(n1)CCO2` [Example 88, 1,5-anhydro-2,3-dideoxy-3-(((7-(3-fluoro-4-(((2R)-tetrahydrofuran-2-ylmethyl)carbamoyl)benzyl)-2,3-dihydrofuro[3,2-b]pyridin-5-yl)carbonyl)amino)-L-threo-pentitol], the “activity (%) at 10 μM” value worked out at 111% and the pEC50 was 8.12.

As for `CC(C)(C)OCCNC(=O)c1ccc(Cc2cc(C(=O)N[C@H]3CCOC[C@@H]3O)nc3c2OCC3)cc1F` [Example 89, 1,5-anhydro-3-(((7-(4-((2-tert-butoxyethyl)carbamoyl)-3-fluorobenzyl)-2,3-dihydrofuro[3,2-b]pyridin-5-yl)carbonyl)amino)-2,3-dideoxy-L-threo-pentitol], the “activity (%) at 10 μM” value is reported as 110% and the pEC50 was 7.60.

Regarding `O=C(N[C@H]1CCOC[C@@H]1O)c1cc(Cc2ccc(C(=O)NCc3ccc(O)cc3)c(F)c2)c2c(n1)CCO2` [Example 90, 1,5-anhydro-2,3-dideoxy-3-(((7-(3-fluoro-4-((4-hydroxybenzyl)carbamoyl)benzyl)-2,3-dihydrofuro[3,2-b]pyridin-5-yl)carbonyl)amino)-L-threo-pentitol], the “activity (%) at 10 μM” value was 113% and the pEC50 was 8.85.

On to `O=C(O)CNC(=O)c1ccc(Cc2cc(C(=O)N[C@H]3CCOC[C@@H]3O)nc3c2OCC3)cc1F` [Example 96, ((2-fluoro-4-((5-(((3R,4S)-3-hydroxytetrahydro-2H-pyran-4-yl)carbamoyl)-2,3-dihydrofuro[3,2-b]pyridin-7-yl)methyl)benzoyl)amino)acetic acid], for which the “activity (%) at 10 μM” value was 107% and the pEC50 was 7.96.

Regarding `CC(C)SCCNC(=O)c1ccc(Cc2cc(C(=O)N[C@H]3CCOC[C@@H]3O)nc3c2OCC3)cc1F` [Example 97, 1,5-anhydro-2,3-dideoxy-3-(((7-(3-fluoro-4-((2-(isopropylsulfanyl)ethyl)-carbamoyl)benzyl)-2,3-dihydrofuro[3,2-b]pyridin-5-yl)carbonyl)amino)-L-threo-pentitol], the “activity (%) at 10 μM” value stood at 107% and the pEC50 was 8.29.

Consider `CN(C)C(=O)CNC(=O)c1ccc(Cc2cc(C(=O)N[C@H]3CCOC[C@@H]3O)nc3c2OCC3)cc1F` [Example 100, 1,5-anhydro-2,3-dideoxy-3-(((7-(4-((2-(dimethylamino)-2-oxoethyl)carbamoyl)-3-fluorobenzyl)-2,3-dihydrofuro[3,2-b]pyridin-5-yl)carbonyl)amino)-L-threo-pentitol], for which the “activity (%) at 10 μM” value was found to be 103% and the pEC50 was 8.42.

As for `O=C(N[C@H]1CCOC[C@@H]1O)c1cc(Cc2ccc(C(=O)NC[C@H]3CCCO3)c(F)c2)c2occc2n1` [Example 105, 1,5-anhydro-2,3-dideoxy-3-(((7-(3-fluoro-4-(((2R)-tetrahydrofuran-2-ylmethyl)carbamoyl)benzyl)-furo[3,2-b]pyridin-5-yl)carbonyl)amino)-L-threo-pentitol], the “activity (%) at 10 μM” value is recorded as 105% and the pEC50 was 8.37.

As for `COCCNC(=O)c1ccc(C(C)c2cc(C(=O)N[C@H]3CCOC[C@@H]3O)nc3ccoc23)cc1F` (stereo partly drawn) [Example 111, 1,5-anhydro-2,3-dideoxy-3-(((7-(1-(3-fluoro-4-((2-methoxyethyl)carbamoyl)phenyl)ethyl)furo[3,2-b]pyridin-5-yl)carbonyl)amino)-L-threo-pentitol], the “activity (%) at 10 μM” value was 107% and the pEC50 is 8.06.

On to `CN1Cc2cc(Cc3cc(C(=O)N[C@H]4CCOC[C@@H]4O)nc4c3OCC4)ccc2C1=O` [Example 113, 1,5-anhydro-2,3-dideoxy-3-(((7-((2-methyl-1-oxo-2,3-dihydro-1H-isoindol-5-yl)methyl)-2,3-dihydrofuro[3,2-b]pyridin-5-yl)carbonyl)amino)-L-threo-pentitol], for which the “activity (%) at 10 μM” value was 109% and the pEC50 was 7.68.
